# Measured values taken from the supplement of paper PMC10307832.
# Tests used:
# Experiment in all cases: relative viability (nuclei count vs DMSO), 5 days (fraction); higher = more cells survive
# [1] = compound: CC1CC(=O)N(C2=CN=C(N=C2N1C3CCCC3)NC4=C(C=C(C=C4)C(=O)NC5CCN(CC5)C)OC)C [NPK76-II-72-1] + CS(=O)(=O)CCNCc1ccc(-c2ccc3ncnc(Nc4ccc(OCc5cccc(F)c5)c(Cl)c4)c3c2)o1 [Lapatinib] (partner 2 µM)
# Procedure, shortened: (§1)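 Lung cancer cell lines in 1536-well plates got either a single drug or a fixed anchor-drug dose together with five library-drug doses (not always all listed) in √10 steps, by pin tool, on the day after seeding. Nuclei were counted after 5 days, and relative viability is the treated-to-vehicle ratio of nuclei counts. Values are medians of duplicate plates.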
# [2] = compound: CC[C@@H]1C(=O)N(C)c2cnc(Nc3ccc(C(=O)NC4CCN(C)CC4)cc3OC)nc2N1C1CCCC1 [BI-2536] + C[C@@H](Oc1cc(-c2cnn(C3CCNCC3)c2)cnc1N)c1c(Cl)ccc(F)c1Cl [Crizotinib] (partner 1 µM)
# Procedure, shortened: as §1
# [3] = compound: CC[C@@H]1C(=O)N(C)c2cnc(Nc3ccc(C(=O)NC4CCN(C)CC4)cc3OC)nc2N1C1CCCC1 [BI-2536] + O=C(c1cc(Cc2n[nH]c(=O)c3ccccc23)ccc1F)N1CCN(C(=O)C2CC2)CC1 [Olaparib] (partner 8 µM)
# Procedure, shortened: as §1
# [4] = compound: CC1CC(=O)N(C2=CN=C(N=C2N1C3CCCC3)NC4=C(C=C(C=C4)C(=O)NC5CCN(CC5)C)OC)C [NPK76-II-72-1] + Cc1nc(Nc2ncc(C(=O)Nc3c(C)cccc3Cl)s2)cc(N2CCN(CCO)CC2)n1 [Dasatinib] (partner 0.075 µM)
# Procedure, shortened: as §1
Cell Line,relative viability ([1]; first compound 0.01 µM),relative viability ([1]; first compound 0.03162 µM),relative viability ([1]; first compound 0.1 µM),relative viability ([1]; first compound 0.3162 µM),relative viability ([1]; first compound 1 µM),relative viability ([2]; first compound 0.01 µM),relative viability ([2]; first compound 0.03162 µM),relative viability ([2]; first compound 0.1 µM),relative viability ([2]; first compound 0.3162 µM),relative viability ([2]; first compound 1 µM),relative viability ([3]; first compound 0.01 µM),relative viability ([3]; first compound 0.03162 µM),relative viability ([3]; first compound 0.1 µM),relative viability ([3]; first compound 0.3162 µM),relative viability ([3]; first compound 1 µM),relative viability ([4]; first compound 0.01 µM),relative viability ([4]; first compound 0.03162 µM),relative viability ([4]; first compound 0.1 µM),relative viability ([4]; first compound 0.3162 µM),relative viability ([4]; first compound 1 µM)
SK-LU-1,0.897,0.867,0.96,0.776,1.08,0.857,0.51,0.357,0.299,0.279,0.418,0.503,0.302,0.179,0.167,0.188,0.181,0.207,0.202,0.172
H3255,0.263,0.25,0.217,,0.226,0.909,0.763,0.515,0.196,0.24,0.529,0.401,0.406,0.298,0.275,0.406,0.314,0.323,0.245,0.35
NCI-H1792,0.894,0.965,0.923,0.964,1.01,1.04,0.815,1.01,0.417,0.17,0.543,0.374,0.316,0.0436,0.0344,0.799,,0.842,0.66,0.726
SK-MES-1,0.447,0.449,0.426,0.419,0.465,0.997,1.01,0.86,0.212,0.18,0.72,0.656,0.199,0.165,0.177,0.468,0.352,0.399,0.341,0.403
NCI-H1650,0.859,0.756,0.912,0.835,0.86,0.948,0.742,0.208,0.143,0.11,0.866,0.689,0.609,0.166,0.143,0.308,0.314,0.405,0.293,0.265
NCI-H2087,1.01,0.999,0.987,0.983,1.05,0.892,0.771,0.518,0.169,0.139,0.614,0.673,0.471,0.0859,0.102,0.873,0.873,0.813,0.941,0.71
HCC-366,1.04,1.08,1.01,1.14,1.08,0.528,0.49,0.369,0.0121,0.0124,0.323,0.368,0.21,0.0235,0.0223,0.593,0.633,0.638,0.606,0.635
NCI-H727,0.97,1.04,0.81,0.979,0.884,0.939,0.7,0.364,0.331,0.295,0.589,0.765,0.643,0.461,0.576,0.327,0.298,0.316,0.397,0.409
LU99A,0.965,0.98,1.02,0.857,1.04,0.527,0.526,0.218,0.212,0.184,0.23,0.24,0.192,0.137,0.149,0.404,0.505,0.51,0.442,0.674
NCI-H647,0.932,1.01,,0.916,1.01,1.15,0.418,0.425,0.113,0.115,0.481,0.281,0.107,0.0584,0.0662,0.215,0.212,0.131,0.146,0.169
HCC-78,,0.642,0.706,,1.01,0.368,0.288,0.347,0.18,0.159,0.783,0.904,0.774,0.47,0.204,0.384,0.363,0.449,0.346,0.402
NCI-H1755,0.958,0.978,0.994,1.02,1.11,0.893,0.751,0.594,0.315,0.25,0.945,0.816,0.707,0.373,0.316,0.377,0.448,0.429,0.357,0.497
NCI-H3122,1.02,1.03,0.966,1.1,1.04,0.294,0.272,0.242,0.182,0.199,0.621,0.595,0.276,0.131,0.146,0.796,0.802,0.76,0.697,0.956
PC-14,0.321,0.269,0.28,0.301,0.338,0.852,0.793,0.792,0.116,0.0584,0.258,0.155,0.0592,0.0538,0.0392,0.271,0.238,0.272,0.227,0.293
NCI-H2347,0.95,1.06,0.857,0.717,1.08,0.675,0.692,0.675,0.345,0.445,0.537,0.501,0.531,0.471,0.405,0.309,0.297,0.348,0.348,0.327
NCI-H2228,0.88,1.04,1.13,1.15,0.874,0.547,0.466,0.236,0.207,0.172,0.596,0.553,0.141,0.118,0.123,0.367,0.547,0.495,0.566,0.619
